Columns and labels:
Experiment in all cases: SelectScreen kinase specificity survey
Format in all cases: biochemical
Details in all cases: estimated, abridged dose response curve, read-out: Kinase inhibitory activity EC50
ABL2 (Arg) = target: T1, ABL2 (Arg) (Homo sapiens, UniProt P42684)
T1 construct: purchased Invitrogen (SelectScreen platform)
Protocol: (§1) Testing of the compounds described in this invention was carried out using the SelectScreen™ platform from Invitrogen, Inc. (Carlsbad. Calif., USA) and the details of its performance are readily viewed via the web by linking to: http://www.invitrogen.com/downloads/SelectScrn_Brochure.pdf.
(§2) Briefly, the approach is based on treating each specific kinase with a unique substrate and optical reporter system in the presence of ATP at 100 micromolar. In controls, the substrate is phosphorylated and a baseline optimal response is recorded.
(§3) The compounds were then re-tested by adding graded amounts of putative inhibitor which were added in 5 separate increments to generate a dose response curve. The latter is obtained by fitting to a 4 parameter Hill equation, a sigmoid saturation equation.
(§4) The same assay system described in Example 2 can be applied in the determination of kinase specificity. It is well understood by medicinal chemists in the development of kinase inhibitors that the resulting molecules often lack specificity. Not only are homologous kinases inhibited by the same class of compounds, but also non-homologous kinases can be affected by allosteric, induced, activated vs inactivated conformation, and protein folding interactions with the putative inhibitor, which otherwise had been designed to be specific. These off target effects are difficult to predict and can only be ruled in or out by empirically surveying a large set of kinases. It is also understood that changes to scaffolds and variation in their chemical decorations may influence the extent of promiscuity in the patterns of kinase inhibition across kinase classes.
(§5) The following experiment was conducted to address this issue. The indazole compound (IV), described in Example 2 and representative of the new genus was tested along with Symadex against a panel of 230 kinases representative of all known kinases classes. Included in the survey were the Flt3, its mutant, and close relatives in the Class III receptor tyrosine kinase class, together with serine-threonine kinases and atypical kinases many of which share no homology of active site with Flt3 as shown, for example, in the respective “genecard” for each kinase and available for inspection at on the web at http://www.genecards.org/.
(§6) Table 3 lists the estimated EC50 values from an abridged dose response curve for Symadex (C-1311) and CF-123. The kinases are listed alphabetically by Group and Family.

BMX = target: T2, BMX (Homo sapiens, UniProt P51813)
T2 construct: purchased Invitrogen (SelectScreen)
Protocol: as §1, §2, §3, §4, §5, §6

CDK2/cyclin A = target: T3, CDK2/cyclin A (Homo sapiens, UniProt P24941)
T3 construct: purchased Invitrogen (SelectScreen platform)
Protocol: as §1, §2, §3, §4, §5, §6

CDK5/p35 = target: T4, CDK5/p35 (Homo sapiens, UniProt Q00535)
T4 construct: purchased Invitrogen (SelectScreen platform)
Protocol: as §1, §2, §3, §4, §5, §6

CSNK1E (CK1 epsilon) = target: T5, CSNK1E (CK1 epsilon) (Homo sapiens, UniProt P49674)
T5 construct: purchased Invitrogen (SelectScreen platform)
Protocol: as §1, §2, §3, §4, §5, §6

EGFR (ErbB1) = target: T6, EGFR (ErbB1) (Homo sapiens, UniProt P00533)
T6 construct: purchased Invitrogen (SelectScreen service)
Protocol: as §1, §2, §3, §4, §5, §6

EPHA1 = target: T7, EPHA1 (Homo sapiens, UniProt P21709)
T7 construct: purchased Invitrogen (SelectScreen service)
Protocol: as §1, §2, §3, §4, §5, §6

EPHA8 = target: T8, EPHA8 (Homo sapiens, UniProt P29322)
T8 construct: purchased Invitrogen (SelectScreen service)
Protocol: as §1, §2, §3, §4, §5, §6

JAK3 = target: T9, JAK3 (Homo sapiens, UniProt P52333)
T9 construct: purchased Invitrogen (SelectScreen platform)
Protocol: as §1, §2, §3, §4, §5, §6

KDR (VEGFR2) = target: T10, KDR (VEGFR2) (Homo sapiens, UniProt P35968)
T10 construct: purchased Invitrogen, Inc. (SelectScreen platform)
Protocol: as §1, §2, §3, §4, §5, §6

KIT T670I = target: T11, KIT T670I (Homo sapiens, UniProt P10721, T670I)
T11 construct: purchased Invitrogen (SelectScreen platform)
T11 sequence (P10721 26-976 T670I): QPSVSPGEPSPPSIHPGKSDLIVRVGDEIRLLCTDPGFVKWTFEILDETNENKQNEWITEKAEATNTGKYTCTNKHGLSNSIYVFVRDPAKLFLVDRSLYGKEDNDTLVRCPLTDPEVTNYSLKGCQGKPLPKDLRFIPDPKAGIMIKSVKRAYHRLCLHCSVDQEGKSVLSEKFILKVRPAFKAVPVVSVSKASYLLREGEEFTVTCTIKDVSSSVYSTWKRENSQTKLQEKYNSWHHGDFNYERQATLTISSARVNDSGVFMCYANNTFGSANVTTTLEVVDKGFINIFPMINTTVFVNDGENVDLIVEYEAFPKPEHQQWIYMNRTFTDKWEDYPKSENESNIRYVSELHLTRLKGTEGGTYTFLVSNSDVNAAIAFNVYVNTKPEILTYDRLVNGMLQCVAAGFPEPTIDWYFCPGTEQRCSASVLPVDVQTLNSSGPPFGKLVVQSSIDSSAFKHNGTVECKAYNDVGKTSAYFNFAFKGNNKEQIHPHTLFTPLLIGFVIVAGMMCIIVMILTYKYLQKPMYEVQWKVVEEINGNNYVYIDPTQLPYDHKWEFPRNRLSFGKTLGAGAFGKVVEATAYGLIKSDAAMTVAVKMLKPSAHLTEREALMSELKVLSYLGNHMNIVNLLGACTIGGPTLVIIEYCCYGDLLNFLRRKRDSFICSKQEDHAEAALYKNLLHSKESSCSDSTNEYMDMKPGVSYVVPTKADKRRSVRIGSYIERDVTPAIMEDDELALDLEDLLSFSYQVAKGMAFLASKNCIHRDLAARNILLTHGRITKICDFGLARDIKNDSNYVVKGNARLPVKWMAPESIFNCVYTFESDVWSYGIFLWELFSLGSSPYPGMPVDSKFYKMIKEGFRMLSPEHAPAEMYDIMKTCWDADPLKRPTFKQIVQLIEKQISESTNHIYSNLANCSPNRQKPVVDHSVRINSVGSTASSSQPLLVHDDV
Protocol: as §1, §2, §3, §4, §5, §6

MAP4K2 (GCK) = target: T12, MAP4K2 (GCK) (Homo sapiens, UniProt Q12851)
T12 construct: purchased Invitrogen, Inc. (SelectScreen service)
Protocol: as §1, §2, §3, §4, §5, §6

MAPK3 (ERK1) = target: T13, MAPK3 (ERK1) (Homo sapiens, UniProt P27361)
T13 construct: purchased Invitrogen, Inc. (SelectScreen service)
Protocol: as §1, §2, §3, §4, §5, §6

MAPK9 (JNK2) = target: T14, MAPK9 (JNK2) (Homo sapiens, UniProt P45984)
T14 construct: purchased Invitrogen, Inc. (SelectScreen service)
Protocol: as §1, §2, §3, §4, §5, §6

NEK1 = target: T15, NEK1 (Homo sapiens, UniProt Q96PY6)
T15 construct: purchased Invitrogen, Inc. (SelectScreen service)
T15 sequence (Q96PY6 whole entry): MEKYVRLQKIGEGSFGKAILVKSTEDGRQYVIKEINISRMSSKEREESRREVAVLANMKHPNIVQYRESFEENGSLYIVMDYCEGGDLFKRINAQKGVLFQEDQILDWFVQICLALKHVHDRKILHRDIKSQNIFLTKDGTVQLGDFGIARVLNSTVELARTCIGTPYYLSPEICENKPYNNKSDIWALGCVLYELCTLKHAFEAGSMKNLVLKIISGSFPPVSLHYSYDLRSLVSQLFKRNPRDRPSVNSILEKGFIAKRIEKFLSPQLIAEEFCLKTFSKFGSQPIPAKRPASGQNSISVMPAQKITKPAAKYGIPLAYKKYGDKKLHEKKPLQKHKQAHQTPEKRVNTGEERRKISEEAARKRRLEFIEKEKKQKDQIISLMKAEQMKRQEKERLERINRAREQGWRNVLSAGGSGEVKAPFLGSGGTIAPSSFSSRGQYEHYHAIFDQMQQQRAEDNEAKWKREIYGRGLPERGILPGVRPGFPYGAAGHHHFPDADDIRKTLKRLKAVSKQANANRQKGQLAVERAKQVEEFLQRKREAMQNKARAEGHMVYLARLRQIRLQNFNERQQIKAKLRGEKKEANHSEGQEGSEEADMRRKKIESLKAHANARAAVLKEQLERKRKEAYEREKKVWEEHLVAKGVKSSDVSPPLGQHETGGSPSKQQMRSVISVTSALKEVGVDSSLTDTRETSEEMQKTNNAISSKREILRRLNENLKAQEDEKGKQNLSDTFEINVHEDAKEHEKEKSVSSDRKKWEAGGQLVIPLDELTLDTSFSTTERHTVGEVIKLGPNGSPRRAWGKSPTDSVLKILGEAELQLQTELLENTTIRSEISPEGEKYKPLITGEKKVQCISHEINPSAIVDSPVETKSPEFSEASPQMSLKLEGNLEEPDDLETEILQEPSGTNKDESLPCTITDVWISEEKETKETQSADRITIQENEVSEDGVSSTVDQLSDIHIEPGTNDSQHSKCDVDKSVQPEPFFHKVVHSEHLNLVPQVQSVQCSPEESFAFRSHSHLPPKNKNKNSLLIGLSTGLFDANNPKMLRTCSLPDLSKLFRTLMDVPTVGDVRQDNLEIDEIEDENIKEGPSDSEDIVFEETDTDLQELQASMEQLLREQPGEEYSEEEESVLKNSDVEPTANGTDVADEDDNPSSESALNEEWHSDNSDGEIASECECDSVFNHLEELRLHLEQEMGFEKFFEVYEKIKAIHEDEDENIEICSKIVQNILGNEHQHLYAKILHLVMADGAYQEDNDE
Protocol: as §1, §2, §3, §4, §5, §6

NEK2 = target: T16, NEK2 (Homo sapiens, UniProt P51955)
T16 construct: purchased Invitrogen, Inc. (SelectScreen service)
Protocol: as §1, §2, §3, §4, §5, §6

NEK4 = target: T17, NEK4 (Homo sapiens, UniProt P51957)
T17 construct: purchased Invitrogen, Inc. (SelectScreen service)
Protocol: as §1, §2, §3, §4, §5, §6

PAK2 (PAK65) = target: T18, PAK2 (PAK65) (Homo sapiens, UniProt Q13177)
T18 construct: purchased Invitrogen (SelectScreen platform)
Protocol: as §1, §2, §3, §4, §5, §6

PDGFRA T674I = target: T19, PDGFRA T674I (Homo sapiens, UniProt P16234, T674I)
T19 construct: purchased Invitrogen (SelectScreen platform)
Protocol: as §1, §2, §3, §4, §5, §6

PDK1 = target: T20, PDK1 (Homo sapiens, UniProt O15530)
T20 construct: purchased Invitrogen (SelectScreen platform)
Protocol: as §1, §2, §3, §4, §5, §6

PRKACA (PKA, PKACA) = target: T21, PRKACA (PKA, PKACA) (Homo sapiens, UniProt P17612)
T21 construct: purchased Invitrogen (SelectScreen platform)
Protocol: as §1, §2, §3, §4, §5, §6

PRKCE (PKC epsilon) = target: T22, PRKCE (PKC epsilon) (Homo sapiens, UniProt Q02156)
T22 construct: purchased Invitrogen, Inc. (SelectScreen platform)
Protocol: as §1, §2, §3, §4, §5, §6

PTK6 (Brk) = target: T23, PTK6 (Brk) (Homo sapiens, UniProt Q13882)
T23 construct: purchased Invitrogen (SelectScreen)
T23 sequence (Q13882 whole entry): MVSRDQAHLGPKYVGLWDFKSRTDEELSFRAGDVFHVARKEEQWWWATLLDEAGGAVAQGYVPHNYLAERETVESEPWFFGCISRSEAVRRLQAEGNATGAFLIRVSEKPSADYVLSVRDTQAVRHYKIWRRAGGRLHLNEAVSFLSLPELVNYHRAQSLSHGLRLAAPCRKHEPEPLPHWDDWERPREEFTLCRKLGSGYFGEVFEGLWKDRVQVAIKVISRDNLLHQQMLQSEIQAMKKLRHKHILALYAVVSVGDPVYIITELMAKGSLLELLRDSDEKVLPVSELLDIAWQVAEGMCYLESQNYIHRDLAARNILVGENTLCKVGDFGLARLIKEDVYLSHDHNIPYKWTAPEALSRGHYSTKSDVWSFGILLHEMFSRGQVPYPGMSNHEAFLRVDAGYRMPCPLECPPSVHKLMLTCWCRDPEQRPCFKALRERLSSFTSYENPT
Protocol: as §1, §2, §3, §4, §5, §6

RAF1 (cRAF) Y340D Y341D = target: T24, RAF1 (cRAF) Y340D Y341D (Homo sapiens, UniProt P04049, Y340D/Y341D)
T24 construct: purchased Invitrogen, Inc. (SelectScreen platform)
T24 sequence (P04049 whole entry Y340D/Y341D): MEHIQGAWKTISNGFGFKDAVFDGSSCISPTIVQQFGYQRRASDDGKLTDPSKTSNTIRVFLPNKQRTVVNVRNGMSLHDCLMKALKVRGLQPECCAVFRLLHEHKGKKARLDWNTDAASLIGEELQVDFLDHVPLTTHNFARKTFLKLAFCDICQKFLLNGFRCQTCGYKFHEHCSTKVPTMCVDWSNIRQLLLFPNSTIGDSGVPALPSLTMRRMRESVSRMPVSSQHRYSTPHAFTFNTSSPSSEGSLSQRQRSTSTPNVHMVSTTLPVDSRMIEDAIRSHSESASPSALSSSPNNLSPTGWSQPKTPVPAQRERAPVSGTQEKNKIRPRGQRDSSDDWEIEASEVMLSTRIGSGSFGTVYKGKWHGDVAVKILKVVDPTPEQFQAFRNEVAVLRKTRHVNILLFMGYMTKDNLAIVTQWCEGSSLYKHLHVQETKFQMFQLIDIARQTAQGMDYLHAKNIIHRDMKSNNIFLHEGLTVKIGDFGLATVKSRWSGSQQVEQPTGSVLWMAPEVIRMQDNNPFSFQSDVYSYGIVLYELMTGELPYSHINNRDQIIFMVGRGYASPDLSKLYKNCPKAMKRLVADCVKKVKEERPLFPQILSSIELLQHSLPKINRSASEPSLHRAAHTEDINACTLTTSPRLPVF
Protocol: as §1, §2, §3, §4, §5, §6

SGK (SGK1) = target: T25, SGK (SGK1) (Homo sapiens, UniProt O00141)
T25 construct: purchased Invitrogen, Inc. (SelectScreen platform)
T25 sequence (O00141 whole entry): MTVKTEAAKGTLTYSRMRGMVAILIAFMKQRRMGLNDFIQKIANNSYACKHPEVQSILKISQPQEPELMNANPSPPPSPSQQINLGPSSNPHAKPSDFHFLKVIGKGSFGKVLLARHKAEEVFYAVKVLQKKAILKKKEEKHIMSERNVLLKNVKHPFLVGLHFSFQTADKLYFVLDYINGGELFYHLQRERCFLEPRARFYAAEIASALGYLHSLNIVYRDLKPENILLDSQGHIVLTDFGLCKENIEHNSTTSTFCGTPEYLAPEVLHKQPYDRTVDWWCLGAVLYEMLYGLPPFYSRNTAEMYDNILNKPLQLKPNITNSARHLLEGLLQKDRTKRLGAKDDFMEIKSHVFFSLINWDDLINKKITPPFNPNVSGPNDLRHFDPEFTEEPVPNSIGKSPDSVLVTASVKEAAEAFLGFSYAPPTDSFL
Protocol: as §1, §2, §3, §4, §5, §6

STK22B (TSSK2) = target: T26, STK22B (TSSK2) (Homo sapiens, UniProt Q96PF2)
T26 construct: purchased Invitrogen, Inc. (SelectScreen platform)
Protocol: as §1, §2, §3, §4, §5, §6

T1 sequence (P42684 whole entry): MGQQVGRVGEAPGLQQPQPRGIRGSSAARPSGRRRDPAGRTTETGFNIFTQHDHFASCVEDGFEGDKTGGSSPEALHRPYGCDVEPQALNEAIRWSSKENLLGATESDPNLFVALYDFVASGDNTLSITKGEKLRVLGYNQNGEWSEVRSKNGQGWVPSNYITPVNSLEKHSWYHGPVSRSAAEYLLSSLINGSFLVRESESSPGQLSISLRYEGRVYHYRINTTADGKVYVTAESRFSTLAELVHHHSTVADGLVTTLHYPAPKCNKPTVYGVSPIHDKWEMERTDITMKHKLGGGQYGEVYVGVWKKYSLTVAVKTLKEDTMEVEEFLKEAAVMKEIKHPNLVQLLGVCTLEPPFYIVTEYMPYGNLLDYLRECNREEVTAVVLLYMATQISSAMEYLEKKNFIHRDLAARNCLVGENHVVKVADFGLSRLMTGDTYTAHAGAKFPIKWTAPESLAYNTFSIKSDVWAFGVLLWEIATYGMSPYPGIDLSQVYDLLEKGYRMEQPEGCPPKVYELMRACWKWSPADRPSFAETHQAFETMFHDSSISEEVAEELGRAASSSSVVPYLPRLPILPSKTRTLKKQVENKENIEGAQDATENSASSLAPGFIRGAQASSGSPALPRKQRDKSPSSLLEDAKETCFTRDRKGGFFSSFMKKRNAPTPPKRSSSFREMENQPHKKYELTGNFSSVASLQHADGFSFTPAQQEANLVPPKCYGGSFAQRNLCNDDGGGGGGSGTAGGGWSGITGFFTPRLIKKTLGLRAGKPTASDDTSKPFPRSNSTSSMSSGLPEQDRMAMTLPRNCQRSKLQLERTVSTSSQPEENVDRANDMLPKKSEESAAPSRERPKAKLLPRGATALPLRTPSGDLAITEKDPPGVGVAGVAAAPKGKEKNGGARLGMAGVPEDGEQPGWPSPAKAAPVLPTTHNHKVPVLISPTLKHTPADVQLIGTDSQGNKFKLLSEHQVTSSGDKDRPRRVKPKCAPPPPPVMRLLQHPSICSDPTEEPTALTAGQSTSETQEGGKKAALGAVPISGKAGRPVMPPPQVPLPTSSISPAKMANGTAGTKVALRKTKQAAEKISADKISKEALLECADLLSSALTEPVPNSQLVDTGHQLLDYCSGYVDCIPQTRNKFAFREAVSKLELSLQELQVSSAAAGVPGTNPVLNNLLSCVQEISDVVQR

Compound	EC50 (ABL2 (Arg)) [µM]	EC50 (BMX) [µM]	EC50 (CDK2/cyclin A) [µM]	EC50 (CDK5/p35) [µM]	EC50 (CSNK1E (CK1 epsilon)) [µM]	EC50 (EGFR (ErbB1)) [µM]	EC50 (EPHA1) [µM]	EC50 (EPHA8) [µM]	EC50 (JAK3) [µM]	EC50 (KDR (VEGFR2)) [µM]	EC50 (KIT T670I) [µM]	EC50 (MAP4K2 (GCK)) [µM]	EC50 (MAPK3 (ERK1)) [µM]	EC50 (MAPK9 (JNK2)) [µM]	EC50 (NEK1) [µM]	EC50 (NEK2) [µM]	EC50 (NEK4) [µM]	EC50 (PAK2 (PAK65)) [µM]	EC50 (PDGFRA T674I) [µM]	EC50 (PDK1) [µM]	also measured
CN(C)CCCNc1ccc2ncn3c4ccc5[nH]ncc5c4c(=O)c1c23 [Compound (IV)]	2.87	3.23	0.822	2.8	> 5	> 5	> 5	4.15	> 5	0.83	> 5	> 5	> 5	> 5	> 5	> 5	> 5	> 5	> 5	2.9	EC50 (PRKACA (PKA, PKACA)): > 5 µM; EC50 (PRKCE (PKC epsilon)): 2.52 µM; EC50 (PTK6 (Brk)): > 5 µM; EC50 (RAF1 (cRAF) Y340D Y341D): > 5 µM; EC50 (SGK (SGK1)): 3.45 µM; EC50 (STK22B (TSSK2)): > 5 µM
CCN(CC)CCNc1ccc2ncn3c4ccc(O)cc4c(=O)c1c23 [Symadex, 5-(2-(diethylamino)ethylamino)-8-hydroxy-6H-imidazo[4,5,1-de]acridin-6-one, reference compound]	3.21	> 5	> 5	> 5	1.09	> 5	> 5	3.35	> 5	1.6	> 5	4.93	> 5	> 5	3.38	> 5	> 5	> 5	> 5	> 5	EC50 (PRKACA (PKA, PKACA)): > 5 µM; EC50 (PRKCE (PKC epsilon)): > 5 µM; EC50 (PTK6 (Brk)): > 5 µM; EC50 (RAF1 (cRAF) Y340D Y341D): > 5 µM; EC50 (SGK (SGK1)): 2.71 µM; EC50 (STK22B (TSSK2)): > 5 µM

Reference: patent publication US20100292231A1, “Indazole Compounds for Treating Inflammatory Disorders, Demyelinating Disorders and Cancers” (priority 2007, published 2010)
